Values of other authors in patent US20070059371A1, “Nanoparticulate ebastine formulations” (Elan Pharma International, Limited, priority 2005, published 2007).

Assays:
[1] = mainly as conjugated metabolites

- solubility in water: not very soluble in water
- excreted in the urine [1]: 66%
SMILES: CC(C)(C)c1ccc(C(=O)CCCN2CCC(OC(c3ccccc3)c3ccccc3)CC2)cc1 [Ebastine, 4′-tert-butyl-4-[4-(diphenylmethoxy)piperidino]butyrophenone]
